Laboratory results: patent US20240024405A1, “COMPOSITIONS OF CASPASE INHIBITORS AND METHODS OF USE THEREOF” (priority 2022, published 2024)
Where a SMILES comes first, the peptide text is derived from it. The star is where a group is joined. Cbz = O=C(OCc1ccccc1)*; CH2F = FC*

Legend:
rMERS-CoV/TKKD = assay type: cell-based, MERS-CoV
MERS-CoV [1] = assay type: cell-based
HCoV-229E = assay type: cell-based
caspase-6 [2] = molecular target: T1, caspase-6 (Homo sapiens, UniProt P55212); assay type: cell-based
T1 construct: expressed in transfected cells
T1 sequence (P55212 24-179 limits assumed): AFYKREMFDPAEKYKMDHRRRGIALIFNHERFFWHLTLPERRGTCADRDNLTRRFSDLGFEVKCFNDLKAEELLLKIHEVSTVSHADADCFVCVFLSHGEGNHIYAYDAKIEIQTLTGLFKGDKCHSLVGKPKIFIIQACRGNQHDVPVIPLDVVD
T1 sequence (P55212 194-293 limits assumed): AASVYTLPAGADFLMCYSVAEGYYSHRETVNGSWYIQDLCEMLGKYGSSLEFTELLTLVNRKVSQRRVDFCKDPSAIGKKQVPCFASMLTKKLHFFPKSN

MERS-CoV [3] = assay type: cell-based; remark: listed apart in the source
SARS-CoV-1 = assay type: cell-based
MERS-CoV [4] = assay type: cell-based, human
MERS-CoV [5] = assay type: cell-based, human; remark: listed apart in the source
MERS-CoV MA = system: MERS-CoV MA; parameters: species or system mice; details: in vivo
enterovirus A71 = assay type: cell-based
MERS-CoV [6] = system: MERS-CoV
MERS-CoV [7] = assay type: cell-based; remark: listed apart in the source
MERS-CoV [8] = assay type: cell-based; remark: listed apart in the source
rMERS-CoV/TKKA = assay type: cell-based, MERS-CoV
SARS-CoV-2 [9] = system: SARS-CoV-2; parameters: species or system Golden Syrian hamsters; details: in vivo
SARS-CoV-2 [10] = system: SARS-CoV-2
influenza virus (H1N1) = assay type: cell-based
caspase-6 [11] = assay type: cell-based

CC[C@H](C)[C@H](NC(=O)[C@H](CCC(=O)OC)NC(=O)[C@@H](NC(=O)OCc1ccccc1)C(C)C)C(=O)N[C@@H](CC(=O)OC)C(=O)CF [z-VEID-fmk, Z-Val-Glu(OMe)-Ile-Asp(OMe)-CH2F] (Cbz-VE(OMe)ID(OMe)-CH2F)
Replication of rMERS-CoV/TKKD (rMERS-CoV/TKKD): remained effective | Antiviral effect of z-VEID-fmk when the IFN pathway is non-functional (MERS-CoV [1]): diminished | HCoV-229E replication (N gene copy) (HCoV-229E): attenuated | Cleavage of MERS-CoV N by co-expressed caspase-6 (caspase-6 [2]): completely abolished | N cleavage in MERS-CoV-infected cells (caspase-6 [2]): similarly inhibited | MERS-CoV replication among specific caspase inhibitors (MERS-CoV N-positive cells) (MERS-CoV [3]): most dramatically limited | SARS-CoV-1 replication (N gene copy) (SARS-CoV-1): attenuated | HCoV-OC43 replication (N gene copy) (HCoV-OC43): attenuated | IC50 (HCoV-OC43): 30.6 µM | MERS-CoV nucleocapsid (N) protein and N gene expression in human lung tissues (MERS-CoV [4]): significantly reduced | MERS-CoV replication in human intestinal organoids (MERS-CoV [5]): inhibited | Inhibition of production of infectious virus particles in human intestinal organoids (MERS-CoV [5]; 100 µM): approximately 80% | Expression of pro-inflammatory cytokines and chemokines in mouse lungs (MERS-CoV MA): significantly attenuated | Body weight loss of infected mice (MERS-CoV MA; mouse): largely inhibited | MERS-CoV MA replication in the lungs (MERS-CoV MA; mouse): effectively reduced | Survival of infected hDPP4 KI mice (MERS-CoV MA; mouse): 80% | Enterovirus A71 replication (VP1 gene copy) (enterovirus A71): did not impact | IC50 (MERS-CoV [6]): 21.1 µM | Inhibitory effect on MERS-CoV replication across cell types (MERS-CoV [6]): conserved across different cell types exceptVeroE6 cells | MERS-CoV replication (N gene copy) (MERS-CoV [6]): attenuated | Virus replication when inhibitor added during MERS-CoV inoculation (MERS-CoV [7]): did not reduce | Viral inhibitory effect in stable caspase-6 knockdown cells (MERS-CoV [8]): largely diminished | Replication of rMERS-CoV/TKKA (rMERS-CoV/TKKA): not limited | Alveolar space immune cells infiltration (SARS-CoV-2 [9]; hamster): dramatically inhibited | Body weight of infected hamsters (SARS-CoV-2 [9]; hamster): significant improvements | Lung damage by histopathological scores (SARS-CoV-2 [9]; hamster): significantly ameliorated | Tissue damage: bronchiolitis, alveolitis and vasculitis (SARS-CoV-2 [9]; hamster): significantly ameliorated | Expression of virus-induced pro-inflammatory cytokines and chemokines in hamster lungs (SARS-CoV-2 [9]): ameliorated | Hamster lung pathology (H&E) (SARS-CoV-2 [9]): markedly improved | Number of viral N-protein positive cells in hamster lungs (SARS-CoV-2 [9]): reduced | SARS-CoV-2 replication in the hamster lungs (SARS-CoV-2 [9]): significantly reduced | SARS-CoV-2 replication (RdRp gene copy) (SARS-CoV-2 [10]): attenuated | H1N1 replication (M gene copy) (influenza virus (H1N1)): did not impact

z-VAD-fmk
HCoV-229E replication with pan-caspase inhibitor (HCoV-229E): similarly limited | SARS-CoV-1 replication with pan-caspase inhibitor (SARS-CoV-1): similarly limited | HCoV-OC43 replication with pan-caspase inhibitor (HCoV-OC43): similarly limited | MERS-CoV replication with pan-caspase inhibitor (MERS-CoV [6]): significantly limited | SARS-CoV-2 replication with pan-caspase inhibitor (SARS-CoV-2 [10]): similarly limited

CN[C@@H]1C[C@H]2O[C@@](C)([C@@H]1OC)n1c3ccccc3c3c4c(c5c6ccccc6n2c5c31)C(=O)NC4 [Staurosporine]
Caspase-6 activity in cell lysate (caspase-6 [11]): activated
